Data published in patent publication US20230144211A1, “ANTIFOLATE LINKER-DRUGS AND ANTIBODY-DRUG CONJUGATES” (Byondis B.V., priority 2020, published 2023).

Experiments:
Test in all cases: In vitro cell viability assay (CellTiter-Glo, 6 days)
Type in all cases: cell-based, human
AU-565 cells = system: AU-565 cells
Experimental: (§1) FaDu, BxPC-3, HeLa, MV4-11, and RAJI cell lines were obtained from Deutsche Sammlung von Mikroorganismen und Zellkulturen (Leipzig, Germany). Jurkat NucLight Red cells were obtained from Essen BioScience Inc. (Ann Arbor, Mich., USA). SK-BR-3 and SK-OV-3 cells were cultured in McCoys 5A medium (Lonza; Walkersville, Md., USA) supplemented with 10% v/w Fetal Bovine Serum (FBS), Heat-inactivated (HI) (Gibco-Life Technologies; Carlsbad, Calif.) and 80 U/mL Pen/Strep (Gibco-Life Technologies), at 37° C. in a humidified incubator under 5% CO2 atmosphere. SW-620 cells were similarly maintained in RPMI 1640 medium (Lonza), containing 10% v/w FBS HI and 80 U/mL Pen/Strep. A-549 cells were similarly maintained in F-12K Nutrient Mixture (1×) (Gibco-Life Technologies) media supplemented with 80 U/mL Pen/Strep and 5% v/w FBS, which was Qualified (Q) (Gibco-Life Technologies). BT-474 and AU-565 cells were similarly maintained in RPMI 1640 medium (Lonza), containing 10% v/w FBS, which was Qualified (Q) (Gibco-Life Technologies), and 80 U/mL Pen/Strep. […] Jurkat NucLight Red cells were similarly maintained in RPMI 1640 medium (Lonza), containing 10% v/w FBS HI, 80 U/mL Pen/Strep and 0.5 μg/mL Puromycin (Gibco-Life Technologies). FaDu cells were cultured in EMEM medium (Lonza) supplemented with 10% v/w FBS HI (Gibco-Life Technologies), 1× GlutaMAX (Gibco-Life Technologies), and 80 U/mL Pen/Strep (Gibco-Life Technologies), at 37° C. in a humidified incubator under 5% CO2 atmosphere.
(§2) After an overnight incubation, 10 serial log 10 dilutions of the free drugs were made in DMSO (Sigma-Aldrich). These free drug dose-response curves were 10-times further diluted in complete growth medium. For the ADCs according to the invention 10 serial log 10 dilutions were made in complete growth medium. 10 μL of a composition comprising a free drug or an ADC according to the invention was added to the assay plate (final DMSO content for free drugs was 1%). […] […] Percentage cell survival was calculated by dividing the measured luminescence for each free drug or ADC according to the concentration with the average mean of untreated cells (1% or 0.1% DMSO control (for free drugs) or 100% complete growth medium (for ADCs)) multiplied by 100.
(§3) Curves were fitted by non-linear regression using the sigmoidal dose-response equation with variable slope (four parameters) using curve-fitting software (GraphPad Prism, version 9.4.0 for Windows, GraphPad, San Diego, Calif. or Electronic Laboratory Notebook (ELN) add-in BioAssay, version 19.1.0.0218, Perkin Elmer, Waltham, Mass.). Relative IC50 values were calculated as the concentration that gives a response halfway between bottom and top of the curve, when using a 4-parameter logistic fit. Data were reported as mean IC50 value of at least one experiment performed in duplicate.

SK-BR-3 cells = system: SK-BR-3 cells
Experimental: as §1, §2, §3

[1] = system: Jurkat NucLight Red cells; settings: free antifolate drugs
Experimental: as §1
After an overnight incubation, 10 serial log 10 dilutions of the free drugs were made in DMSO (Sigma-Aldrich). These free drug dose-response curves were 10-times further diluted in complete growth medium. For the ADCs according to the invention 10 serial log 10 dilutions were made in complete growth medium. 10 μL of a composition comprising a free drug or an ADC according to the invention was added to the assay plate (final DMSO content for free drugs was 1%). […] Cell viability was assessed after 6 days using a luminescent assay kit (CellTiter-Glo™ (CTG), Promega Corporation) according to the manufacturer's instructions. Percentage cell survival was calculated by dividing the measured luminescence for each free drug or ADC according to the concentration with the average mean of untreated cells (1% or 0.1% DMSO control (for free drugs) or 100% complete growth medium (for ADCs)) multiplied by 100.
as §3

[2] = Homo sapiens, AU565, free antifolate drugs, Table 1b
[3] = Homo sapiens, SK-BR-3, free antifolate drugs, Table 1b, # no full dose-response curve
[4] = Homo sapiens, AU565, free antifolate drugs, Table 1c
[5] = Homo sapiens, SK-BR-3, free antifolate drugs, Table 1c
[6] = free antifolate drugs, Table 1c

| SMILES | IC50 (AU-565 cells; [2]) [nM] | IC50 (SK-BR-3 cells; [3]) [nM] | IC50 ([1]; Homo sapiens, Jurkat, Table 1b) [nM] | IC50 (AU-565 cells; [4]) [nM] | IC50 (SK-BR-3 cells; [5]) [nM] | IC50 ([1]; Homo sapiens, Jurkat, Table 1c) [nM] | IC50 (AU-565 cells; [6]) [nM] | IC50 (SK-BR-3 cells; [6]) [nM] | IC50 ([1]; Table 1c) [nM] |
| --- | --- | --- | --- | --- | --- | --- | --- | --- | --- |
| Nc1ccc(C(=O)NCCC[C@H](NC(=O)c2ccc(OCc3cnc4nc(N)nc(N)c4n3)cc2)C(=O)O)c(-c2nn[nH]n2)c1 [AFD-001] | 9.18 | 25 | 4.92 | – | – | – | – | – | – |
| Nc1ccc(C(=O)NCCC[C@H](NC(=O)c2ccc(NCc3cnc4nc(N)nc(N)c4n3)c(O)c2)C(=O)O)c(-c2nn[nH]n2)c1 [AFD-002] | 14 | 20 | 15 | – | – | – | – | – | – |
| C#CCN(Cc1cnc2nc(N)nc(N)c2n1)c1ccc(C(=O)N[C@@H](CCCNC(=O)c2ccc(N)cc2-c2nn[nH]n2)C(=O)O)cc1 [AFD-003] | 0.98 | 2.09 | 1.4 | – | – | – | – | – | – |
| Nc1ccc(C(=O)NCCC[C@H](NC(=O)c2ccc(NCc3cnc4nc(N)nc(N)c4n3)cc2O)C(=O)O)c(-c2nn[nH]n2)c1 [AFD-004] | – | – | – | 0.37 | 0.67 | 0.68 | – | – | – |
| Nc1ccc(C(=O)NCCC[C@H](NC(=O)c2ccc(SCc3cnc4nc(N)nc(N)c4n3)cc2)C(=O)O)c(-c2nn[nH]n2)c1 [AFD-005] | – | – | – | ~8 | ~22 | 5.6 | – | – | – |
| Nc1ccc(C(=O)NCCC[C@H](NC(=O)c2ccc(NCc3cnc4nc(N)nc(N)c4n3)c(N)c2)C(=O)O)c(-c2nn[nH]n2)c1 [AFD-006] | – | – | – | 2.8 | 5.15 | 5.98 | – | – | – |
| Nc1ccc(C(=O)NCCC[C@H](NC(=O)c2ccc3c(c2)CCCN3Cc2cnc3nc(N)nc(N)c3n2)C(=O)O)c(-c2nn[nH]n2)c1 [AFD-007] | – | – | – | 0.68 | 1.06 | 2.01 | – | – | – |
| Nc1ccc(C(=O)NCCC[C@H](NC(=O)c2ccc3c(c2)CCN3Cc2cnc3nc(N)nc(N)c3n2)C(=O)O)c(-c2nn[nH]n2)c1 [AFD-008] | – | – | – | 0.76 | 1.5 | 0.87 | – | – | – |
| Nc1ccc(C(=O)NCCC[C@H](NC(=O)c2ccc3c(ccn3Cc3cnc4nc(N)nc(N)c4n3)c2)C(=O)O)c(-c2nn[nH]n2)c1 [AFD-009] | – | – | – | 1.15 | 2.82 | 1.96 | – | – | – |
| Nc1ccc(C(=O)NCCC[C@H](NC(=O)c2ccc(NCc3cnc4nc(N)nc(N)c4n3)cc2N)C(=O)O)c(-c2nnn[nH]2)c1 [AFD-010] | – | – | – | 1.17 | 2.4 | 2.31 | – | – | – |
| CN(Cc1cnc2nc(N)nc(N)c2n1)c1ccc(C(=O)N[C@@H](CCCNC(=O)c2ccc(N)cc2-c2nn[nH]n2)C(=O)O)s1 [XC5, (S)-5-(4-amino-2-(2H-tetrazol-5-yl)benzamido)-2-(5-(((2,4-diaminopteridin-6-yl)methyl)(methyl)amino)thiophene-2-carboxamido)pentanoic acid] | – | – | – | – | – | – | ~28 | ~100 | ~30 |
| CN(Cc1cnc2nc(N)nc(N)c2n1)c1ccc(C(=O)N[C@@H](CCCNC(=O)c2ccc(N)cc2-c2nn[nH]n2)C(=O)O)s1 [XC9, (S)-5-(4-Amino-2-(2H-tetrazol-5-yl)benzamido)-2-(5-(((2,4-diaminopteridin-6-yl)methyl)(methyl)amino)thiophene-2-carboxamido)pentanoic acid] | – | – | – | – | – | – | 1.95 | 3.77 | 2.41 |
| Nc1ccc(C(=O)NCCC[C@H](NC(=O)c2ccc(NCc3ccc4nc(N)nc(N)c4c3Cl)s2)C(=O)O)c(-c2nnn[nH]2)c1 [XT126, (S)-5-(4-Amino-2-(1H-tetrazol-5-yl)benzamido)-2-(5-(((2,4-diamino-5-chloroquinazolin-6-yl)methyl)amino)thiophene-2-carboxamido)pentanoic acid] | 2.37 | 2.91 | 5.01 | – | – | – | – | – | – |
| Nc1ccc(C(=O)NCCC[C@H](NC(=O)c2ccc(CCc3cnc4nc(N)nc(N)c4n3)cc2)C(=O)O)c(-c2nnn[nH]2)c1 [XT128, (S)-5-(4-Amino-2-(1H-tetrazol-5-yl)benzamido)-2-(4-(2-(2,4-diaminopteridin-6-yl)ethyl)benzamido)pentanoic acid] | 0.34 | 0.57 | 0.61 | 0.36 | 0.78 | 0.71 | – | – | – |
